Experimental data from US20060199230A1, “Use of prostate specific antigen to predict drug response” (Hybritech Incorporated, priority 2005, published 2006).

Columns and labels:
[1] = test system: total PSA, proPSA, free PSA and BPSA in serum; experiment: Serum PSA forms at Time 0 and 1 month of dutasteride treatment; drug response = IPSS decrease of 2 or more at 12 months (Example II); assay type: in vivo, men
Method: (§1) A cohort of serum samples from men greater or equal to 50 years of age with BPH were used. The PSA range was from 1.5 to 10 ng/ml (median 3.2 ng/ml). International Prostate Symptom Score (IPSS) upon entry were 11-32 (moderate to severe, median 18.5). The median Qmax (urine flow rate in cc per second) was 9.3. Men received TRUS for prostate volume at time 0 and then received dutasteride in a blinded fashion at a rate of 0.5 mg per day. Serum was obtained at 0, 1, 3, and 12 months and was assayed for total PSA, proPSA, free PSA and BPSA. IPSS symptom scores were determined at 0, 1 and 12 months. Additional TRUS for prostate volume was performed at 12 months after the start of drug treatment.
The concentrations of total PSA, free PSA, proPSA, and BPSA were examined at Time 0 (pretreatment baseline) and at 1 month after drug treatment. Drug response was defined as men who had improvement (decrease) in their IPSS of equal to 2 or greater after 12 months of treatment. […] The increases in the ratio of BPSA to total PSA and the ratio of BPSA to free PSA were also highly significant.
Another method of determining a cutoff for clinical utility is to calculate the Odds Ratio of a response to drug treatment at 12 months, based on the percentage change in a measured parameter at 1 month. In this case, the odds of responding to the drug (drop of 2 or more in the IPSS at 12 months) increases with increasing ratio of BPSA to proPSA at 1 month. […] With a >250% increase of BPSA to proPSA ratio over baseline at 1 month, there is at least a 2-fold increase in the odds of having a drug response at 12 months. An Odds Ratio of at least 2 is the preferred embodiment of the invention. Using Odds Ratio as a means to set a cutoff for the increase in the ratio of BPSA to proPSA would have a preferred cutoff of 250%.

[2] = test system: total PSA, proPSA, free PSA and BPSA in serum; experiment: Serum PSA forms at Time 0 and 1 month of dutasteride treatment; drug response = prostate volume decrease of 10% or more at 12 months (Example I); assay type: in vivo, men
Method: as §1
Serum from placebo and drug-treated men were tested for levels of PSA forms at Time 0 (pretreatment baseline), and at 1, 3 and 12 months after the start of placebo or drug treatment. […] In this plot, the decrease in prostate volume by 10% or more was used as the definition of drug response.

[3] = Table 3, samples with a decrease of 2 or more in IPSS
[4] = about 1 month, IPSS reduction of 2 or greater at 12 months as drug response
[5] = median after 1 month of drug, 0.5 mg per day, men with improvement in IPSS of 2 or more at 12 months
[6] = median, pretreatment baseline, drug-treated men with improvement in IPSS of 2 or more at 12 months
[7] = about 1 month after drug administration, men with 10% or greater decrease in prostate volume at 12 months
[8] = median after 1 month of drug, 0.5 mg per day, men with decrease of 10% or more in prostate volume at 12 months
[9] = median, pretreatment baseline, drug-treated men with decrease of 10% or more in prostate volume at 12 months

C[C@]12C=CC(=O)N[C@@H]1CC[C@@H]1[C@@H]2CC[C@]2(C)[C@@H](C(=O)Nc3cc(C(F)(F)F)ccc3C(F)(F)F)CC[C@@H]12 [dutasteride]
BPSA, median value at 1 month, Drug [1, 3]: 0.091, 0.151 ng/ml
BPSA/free PSA, median value at 1 month, Drug [1, 3]: 0.228
BPSA/total PSA, median value at 1 month, Drug [1, 3]: 0.032, 0.046
Free PSA, median value at 1 month, Drug [1, 3]: 0.62, 0.67 ng/ml
Free PSA/total PSA, median value at 1 month, Drug [1, 3]: 0.22, 0.21
Total PSA, median value at 1 month, Drug [1, 3]: 3.00, 3.08 ng/ml
decrease in proPSA [1, 4]: 41%
increase in BPSA to proPSA ratio over baseline [1, 4]: 230%
increase in BPSA/free PSA ratio [1, 4]: 44%
increase in BPSA/total PSA ratio [1, 4]: 59%
increase in BPSA ([1]; about 1 month, IPSS reduction of 2 or greater at 12 months as drug response, not significant): 25%
BPSA, 1 Month [1, 5]: 0.151 ng/mL
BPSA/free PSA, 1 Month [1, 5]: 0.228
BPSA/proPSA, 1 Month [1, 5]: 1.32
BPSA/total PSA, 1 Month [1, 5]: 0.046
Free PSA, 1 Month [1, 5]: 0.67 ng/mL
Free PSA/total PSA, 1 Month [1, 5]: 0.21
Total PSA, 1 Month [1, 5]: 3.14 ng/mL
proPSA, 1 Month [1, 5]: 0.103 ng/mL
BPSA, Time 0 [1, 6]: 0.120 ng/mL
BPSA/free PSA, Time 0 [1, 6]: 0.158
BPSA/proPSA, Time 0 [1, 6]: 0.584
BPSA/total PSA, Time 0 [1, 6]: 0.029
Free PSA, Time 0 [1, 6]: 0.77 ng/mL
Free PSA/total PSA, Time 0 [1, 6]: 0.19
Total PSA, Time 0 [1, 6]: 3.68 ng/mL
proPSA, Time 0 [1, 6]: 0.253 ng/mL
difference in any PSA-related parameter, Time 0 vs 1 month, drug non-responders ([1]; men with IPSS improvement of less than 2): None of the placebo samples, or the men with IPSS improvement of less than 2 (drug non-responders), showed statistically a significant difference
total PSA and free PSA levels at 3 months ([2]; 3 months of drug treatment): the levels decrease at 3 months
decrease in proPSA [2, 7]: 48%
increase in BPSA [2, 7]: 86%
increase of the ratio of BPSA to PSA [2, 7]: 78%
increase of the ratio of BPSA to free PSA [2, 7]: 52%
increase of the ratio of BPSA to proPSA over the baseline ratio [2, 7]: 450%
change in total PSA, free PSA, or the ratio of free to total PSA at 1 month ([2]; drug responders: decrease in prostate volume by 10% or more after 12 months): no significant change
change in BPSA at 1 month in drug non-responders ([2]; drug-treated men with less than 10% decrease in prostate volume at 12 months): no significant increase
BPSA, 1 Month [2, 8]: 0.186 ng/mL
BPSA/free PSA, 1 Month [2, 8]: 0.230
BPSA/proPSA, 1 Month [2, 8]: 2.26
BPSA/total PSA, 1 Month [2, 8]: 0.050
Free PSA, 1 Month [2, 8]: 0.76 ng/mL
Free PSA/total PSA, 1 Month [2, 8]: 0.214
Total PSA, 1 Month [2, 8]: 3.14 ng/mL
proPSA, 1 Month [2, 8]: 0.097 ng/mL
BPSA, Time 0 [2, 9]: 0.100 ng/mL
BPSA/free PSA, Time 0 [2, 9]: 0.151
BPSA/proPSA, Time 0 [2, 9]: 0.499
BPSA/total PSA, Time 0 [2, 9]: 0.028
Free PSA, Time 0 [2, 9]: 0.70 ng/mL
Free PSA/total PSA, Time 0 [2, 9]: 0.204
Total PSA, Time 0 [2, 9]: 3.02 ng/mL
proPSA, Time 0 [2, 9]: 0.204 ng/mL
BPSA level at three months vs baseline ([2]; three months after the start of drug administration, FIG. 1): decline below the baseline level
